Measured values reported in ChEMBL document CHEMBL3758091, “Identification of N-(6-mercaptohexyl)-3-(4-pyridyl)-1H-pyrazole-5-carboxamide and its disulfide prodrug as potent histone deacetylase inhibitors with in vitro and in vivo anti-tumor efficacy” (Eur J Med Chem, 2016).

Legend:
[1] = tested on: MCF7; test: cells; type: functional; conditions: Homo sapiens, MCF7, 96 h
Description: Growth inhibition of human MCF7 cells after 96 hrs by MTT assay

[2] = cells; type: functional; conditions: Homo sapiens, HCT-116, 96 h
Description: Growth inhibition of human HCT116 cells after 96 hrs by MTT assay

[3] = tested on: HT-29; test: Growth inhibition of human HT-29 cells after 96 hrs by MTT assay; type: functional
[4] = tested on: MDA-MB-231; test: cells; type: functional; conditions: Homo sapiens, MDA-MB-231, 96 h
Description: Growth inhibition of human MDA-MB-231 cells after 96 hrs by MTT assay

[5] = tested on: A549; test: cells; type: functional; conditions: Homo sapiens, A549, 96 h
Description: Growth inhibition of human A549 cells after 96 hrs by MTT assay

[6] = cells; type: functional; conditions: Homo sapiens, PC-3, 96 h
Description: Growth inhibition of human PC3 cells after 96 hrs by MTT assay

[7] = cells; type: functional; conditions: Homo sapiens, ASPC1, 96 h
Description: Growth inhibition of human Aspc-1 cells after 96 hrs by MTT assay

[8] = Cytotoxicity against HEK293 cells assessed as growth inhibition after 96 hrs by MTT assay; conditions: human
[9] = target: T1, Histone deacetylase 1 (Homo sapiens, UniProt Q13547); test: Inhibition of HDAC1 in human HCT116 cells assessed as increase in acetylated histone H3 level after 24 hrs by Western blot analysis; type: cell-based; conditions: HCT-116
T1 sequence (Q13547 whole entry): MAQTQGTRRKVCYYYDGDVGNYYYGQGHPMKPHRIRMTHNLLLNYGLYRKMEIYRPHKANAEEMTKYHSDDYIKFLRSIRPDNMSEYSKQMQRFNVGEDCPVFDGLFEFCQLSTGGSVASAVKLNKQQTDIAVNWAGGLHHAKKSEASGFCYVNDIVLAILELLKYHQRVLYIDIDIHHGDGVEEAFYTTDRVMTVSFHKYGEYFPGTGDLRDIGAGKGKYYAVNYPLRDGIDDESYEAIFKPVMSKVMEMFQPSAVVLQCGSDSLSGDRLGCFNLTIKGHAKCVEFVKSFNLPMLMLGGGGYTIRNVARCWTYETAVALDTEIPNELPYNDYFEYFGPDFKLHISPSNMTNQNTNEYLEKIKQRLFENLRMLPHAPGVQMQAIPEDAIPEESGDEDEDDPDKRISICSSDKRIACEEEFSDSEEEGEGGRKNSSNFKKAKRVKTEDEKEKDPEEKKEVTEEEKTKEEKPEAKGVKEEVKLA

[10] = target: T2, Protein deacetylase HDAC6 (Homo sapiens) (UniProt Q9UBN7); test: Inhibition of HDAC6 in human HCT116 cells assessed as increase in acetylated tubulin level after 24 hrs by Western blot analysis; type: cell-based; conditions: HCT-116
T2 sequence (whole entry): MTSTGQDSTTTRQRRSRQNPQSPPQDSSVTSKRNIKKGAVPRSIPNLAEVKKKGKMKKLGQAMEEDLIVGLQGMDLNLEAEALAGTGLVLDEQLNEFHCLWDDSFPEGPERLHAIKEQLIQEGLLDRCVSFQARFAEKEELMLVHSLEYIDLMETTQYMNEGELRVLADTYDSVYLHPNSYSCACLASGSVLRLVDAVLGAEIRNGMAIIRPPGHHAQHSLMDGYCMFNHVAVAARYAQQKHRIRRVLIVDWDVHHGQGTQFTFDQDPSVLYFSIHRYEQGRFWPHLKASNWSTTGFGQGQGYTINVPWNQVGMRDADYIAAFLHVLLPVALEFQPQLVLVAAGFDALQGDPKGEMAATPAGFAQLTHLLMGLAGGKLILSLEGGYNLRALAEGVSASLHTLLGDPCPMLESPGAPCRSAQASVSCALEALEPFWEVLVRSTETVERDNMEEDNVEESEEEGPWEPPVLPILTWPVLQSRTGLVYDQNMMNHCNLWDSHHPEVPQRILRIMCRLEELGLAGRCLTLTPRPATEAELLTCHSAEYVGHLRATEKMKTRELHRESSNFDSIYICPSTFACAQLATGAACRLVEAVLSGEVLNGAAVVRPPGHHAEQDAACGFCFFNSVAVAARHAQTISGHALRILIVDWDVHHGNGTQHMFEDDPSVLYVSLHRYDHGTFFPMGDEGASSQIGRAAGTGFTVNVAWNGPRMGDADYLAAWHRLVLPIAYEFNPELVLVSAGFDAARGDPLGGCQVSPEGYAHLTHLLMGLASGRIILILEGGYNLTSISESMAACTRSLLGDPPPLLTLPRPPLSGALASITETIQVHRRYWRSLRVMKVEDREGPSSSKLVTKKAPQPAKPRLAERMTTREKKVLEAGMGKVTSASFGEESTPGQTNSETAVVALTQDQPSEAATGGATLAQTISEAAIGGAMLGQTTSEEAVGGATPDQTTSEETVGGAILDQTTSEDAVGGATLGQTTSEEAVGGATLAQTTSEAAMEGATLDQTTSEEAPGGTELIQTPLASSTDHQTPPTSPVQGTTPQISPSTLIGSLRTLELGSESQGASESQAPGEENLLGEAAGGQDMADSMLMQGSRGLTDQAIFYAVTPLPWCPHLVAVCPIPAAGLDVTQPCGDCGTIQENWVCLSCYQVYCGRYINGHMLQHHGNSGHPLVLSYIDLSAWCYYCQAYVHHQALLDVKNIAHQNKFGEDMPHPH

[11] = Antitumor activity against human HCT116 cells xenografted in athymic nude mouse assessed as tumor growth inhibition at 40 mg/kg, ip qd administered for 14 days measured every other day during compound dosing; type: functional; conditions: HCT-116, ip, 336 h, read-out: TGI
[12] = tested on: Mus musculus; test: Toxicity in athymic nude mouse xenografted with human HCT116 cells assessed as mortality at 40 mg/kg, ip qd administered for 14 days measured every other day during compound dosing; type: organism-based, HCT-116; conditions: in vivo, 336 h
[13] = tested on: Mus musculus; test: Toxicity in athymic nude mouse xenografted with human HCT116 cells assessed as reduction in body weight at 40 mg/kg, ip qd administered for 14 days measured every other day during compound dosing; type: organism-based, HCT-116; conditions: in vivo, 336 h
[14] = target: Histone deacetylase; test: Inhibition of HDAC in human HeLa cell nuclear extract using Boc-Lys(Ac)-AMC as substrate preincubated for 15 mins followed by substrate addition measured after 60 mins by fluorescence-based assay
[15] = target: T1, Histone deacetylase 1; test: Inhibition of recombinant human HDAC1 using Boc-Lys(Ac)-AMC as substrate preincubated for 15 mins followed by substrate addition measured after 60 mins by fluorescence-based assay
[16] = target: T3, Protein deacetylase HDAC6 (Homo sapiens, UniProt Q9UBN7); test: Inhibition of recombinant human HDAC6 using Boc-Lys(Ac)-AMC as substrate preincubated for 15 mins followed by substrate addition measured after 60 mins by fluorescence-based assay
T3 sequence (Q9UBN7 whole entry): T2 sequence (whole entry)

[17] = target: Histone deacetylase 2 (Homo sapiens, UniProt Q92769); test: Inhibition of recombinant human HDAC2 using Boc-Lys(Ac)-AMC as substrate preincubated for 15 mins followed by substrate addition measured after 60 mins by fluorescence-based assay
Chain of Histone deacetylase 2 (Q92769 whole entry): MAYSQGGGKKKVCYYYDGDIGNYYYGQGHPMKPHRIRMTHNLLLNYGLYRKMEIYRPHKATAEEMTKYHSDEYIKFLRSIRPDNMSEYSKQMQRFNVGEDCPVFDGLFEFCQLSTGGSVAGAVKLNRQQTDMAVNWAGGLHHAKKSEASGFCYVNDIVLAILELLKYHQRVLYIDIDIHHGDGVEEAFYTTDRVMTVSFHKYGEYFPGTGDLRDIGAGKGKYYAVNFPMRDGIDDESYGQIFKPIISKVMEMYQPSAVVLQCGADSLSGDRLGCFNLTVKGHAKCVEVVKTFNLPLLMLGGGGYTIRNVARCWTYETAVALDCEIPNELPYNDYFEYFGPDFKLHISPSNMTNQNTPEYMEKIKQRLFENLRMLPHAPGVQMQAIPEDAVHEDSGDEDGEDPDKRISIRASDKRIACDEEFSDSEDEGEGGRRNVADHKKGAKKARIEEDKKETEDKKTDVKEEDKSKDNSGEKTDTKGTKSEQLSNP

[18] = target: Histone deacetylase 3 (Homo sapiens, UniProt O15379); test: Inhibition of recombinant human HDAC3 using Boc-Lys(Ac)-AMC as substrate preincubated for 15 mins followed by substrate addition measured after 60 mins by fluorescence-based assay
Chain of Histone deacetylase 3 (O15379 whole entry): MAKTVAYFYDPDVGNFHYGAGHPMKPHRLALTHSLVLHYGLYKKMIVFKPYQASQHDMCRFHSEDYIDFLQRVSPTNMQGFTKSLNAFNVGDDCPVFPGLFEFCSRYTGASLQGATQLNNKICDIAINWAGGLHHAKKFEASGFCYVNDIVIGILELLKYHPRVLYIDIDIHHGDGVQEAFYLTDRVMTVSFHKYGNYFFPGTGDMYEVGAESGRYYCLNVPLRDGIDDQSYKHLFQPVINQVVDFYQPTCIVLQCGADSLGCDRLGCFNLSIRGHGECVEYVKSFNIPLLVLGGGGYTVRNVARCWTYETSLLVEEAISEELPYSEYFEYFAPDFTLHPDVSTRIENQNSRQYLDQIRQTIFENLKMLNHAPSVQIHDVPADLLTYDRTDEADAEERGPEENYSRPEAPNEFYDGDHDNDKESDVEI

[19] = target: T4, Histone deacetylase 8 (Homo sapiens, UniProt Q9BY41); test: Inhibition of recombinant human HDAC8 using Boc-Lys(TFA)-AMC as substrate preincubated for 15 mins followed by substrate addition measured after 60 mins by fluorescence-based assay
T4 sequence (Q9BY41 whole entry): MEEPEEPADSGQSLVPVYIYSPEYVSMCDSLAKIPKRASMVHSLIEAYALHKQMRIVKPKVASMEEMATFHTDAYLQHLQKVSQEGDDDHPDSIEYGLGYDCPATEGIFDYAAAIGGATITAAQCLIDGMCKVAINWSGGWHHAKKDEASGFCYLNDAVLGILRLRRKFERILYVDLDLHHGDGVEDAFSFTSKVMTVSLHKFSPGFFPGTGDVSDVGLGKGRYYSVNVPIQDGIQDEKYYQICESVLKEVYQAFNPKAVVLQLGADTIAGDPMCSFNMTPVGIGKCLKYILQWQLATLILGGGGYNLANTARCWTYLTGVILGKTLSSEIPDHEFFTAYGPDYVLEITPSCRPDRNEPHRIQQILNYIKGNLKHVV

[20] = target: Histone deacetylase 4 (Homo sapiens, UniProt P56524); test: Inhibition of recombinant human HDAC4 using Boc-Lys(TFA)-AMC as substrate preincubated for 15 mins followed by substrate addition measured after 60 mins by fluorescence-based assay
Chain of Histone deacetylase 4 (P56524 whole entry): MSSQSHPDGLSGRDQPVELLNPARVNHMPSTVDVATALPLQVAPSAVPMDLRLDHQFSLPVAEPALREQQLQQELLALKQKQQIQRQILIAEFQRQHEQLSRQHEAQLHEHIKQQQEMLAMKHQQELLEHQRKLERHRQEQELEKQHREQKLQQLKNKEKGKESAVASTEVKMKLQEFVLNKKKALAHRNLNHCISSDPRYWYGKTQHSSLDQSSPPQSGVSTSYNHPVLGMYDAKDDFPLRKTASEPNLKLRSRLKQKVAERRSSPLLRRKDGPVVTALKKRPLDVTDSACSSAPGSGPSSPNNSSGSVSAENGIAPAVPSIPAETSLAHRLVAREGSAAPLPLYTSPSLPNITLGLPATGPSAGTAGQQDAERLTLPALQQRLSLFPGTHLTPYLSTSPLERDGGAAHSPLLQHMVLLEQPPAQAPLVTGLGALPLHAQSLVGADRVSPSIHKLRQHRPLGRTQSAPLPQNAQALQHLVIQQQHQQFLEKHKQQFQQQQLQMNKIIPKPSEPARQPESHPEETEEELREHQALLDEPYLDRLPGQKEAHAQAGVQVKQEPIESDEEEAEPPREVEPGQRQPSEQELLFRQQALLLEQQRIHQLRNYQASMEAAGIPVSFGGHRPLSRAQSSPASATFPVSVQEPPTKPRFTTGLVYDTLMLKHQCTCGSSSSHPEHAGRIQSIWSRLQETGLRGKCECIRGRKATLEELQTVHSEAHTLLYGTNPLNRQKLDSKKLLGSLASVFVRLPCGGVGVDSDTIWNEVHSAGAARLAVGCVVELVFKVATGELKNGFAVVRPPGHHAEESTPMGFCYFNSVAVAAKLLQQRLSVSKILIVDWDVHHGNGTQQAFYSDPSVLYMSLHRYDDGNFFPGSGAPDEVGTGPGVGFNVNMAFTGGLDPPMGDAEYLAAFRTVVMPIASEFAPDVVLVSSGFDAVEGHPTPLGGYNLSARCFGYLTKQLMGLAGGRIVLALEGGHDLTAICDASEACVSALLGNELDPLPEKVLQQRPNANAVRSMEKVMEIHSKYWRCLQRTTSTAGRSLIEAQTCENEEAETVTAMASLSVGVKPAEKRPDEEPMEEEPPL

[21] = target: T5, Histone deacetylase 11 (Homo sapiens, UniProt Q96DB2); test: Inhibition of recombinant human HDAC11 using Boc-Lys(TFA)-AMC as substrate preincubated for 15 mins followed by substrate addition measured after 60 mins by fluorescence-based assay
T5 sequence (Q96DB2 whole entry): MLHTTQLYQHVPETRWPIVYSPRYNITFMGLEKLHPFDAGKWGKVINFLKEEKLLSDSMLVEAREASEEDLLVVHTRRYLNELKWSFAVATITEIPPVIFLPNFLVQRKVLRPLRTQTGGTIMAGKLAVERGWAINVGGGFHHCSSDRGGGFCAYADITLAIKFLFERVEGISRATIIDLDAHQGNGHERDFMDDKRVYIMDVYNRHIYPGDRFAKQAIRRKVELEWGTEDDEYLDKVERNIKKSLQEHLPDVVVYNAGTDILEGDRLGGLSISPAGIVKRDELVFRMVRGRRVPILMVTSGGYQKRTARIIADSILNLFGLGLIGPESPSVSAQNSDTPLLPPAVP

[22] = Antitumor activity against human HCT116 cells xenografted in athymic nude mouse assessed as tumor growth inhibition at 80 mg/kg, ip qd administered for 14 days measured every other day during compound dosing; type: functional; conditions: HCT-116, ip, 336 h, read-out: TGI
[23] = tested on: Mus musculus; test: Toxicity in athymic nude mouse xenografted with human HCT116 cells assessed as mortality at 40 to 80 mg/kg, ip qd administered for 14 days measured every other day during compound dosing; type: organism-based, HCT-116; conditions: in vivo, 336 h
[24] = tested on: Mus musculus; test: Toxicity in athymic nude mouse xenografted with human HCT116 cells assessed as reduction in body weight at 40 to 80 mg/kg, ip qd administered for 14 days measured every other day during compound dosing; type: organism-based, HCT-116; conditions: in vivo, 336 h
[25] = tested on: HCT-116; test: Antitumor activity against human HCT116 cells xenografted in ip dosed athymic nude mouse assessed as tumor growth inhibition qd administered for 14 days measured every other day during compound dosing; type: functional, organism-based

GI50 [1]	GI50 ([3]; Homo sapiens, HT-29, 96 h)	GI50 [4]	GI50 [5]	inhibition [9]	inhibition [10]	SMILES	GI50 [2]	GI50 [6]	GI50 [7]	GI50 at 96 h [8]	inhibition in vivo at 40 mg/kg [11]	also measured
3.79 µM	5.29 µM	10.3 µM	5.31 µM	Dose-dependent effect	Dose-dependent effect	O=C(NCCCCCCSSCCCCCCNC(=O)c1cc(-c2cccnc2)n[nH]1)c1cc(-c2cccnc2)n[nH]1	3.03 µM	1.25 µM	3.6 µM	13.5 µM	28%	–
–	–	–	–	–	–	O=C(CCCCCCC(=O)Nc1ccccc1)NO [VORINOSTAT]	–	–	–	–	–	GI50 [3]: 2.88 µM; Activity [12]: Non-toxic; Activity [13]: Non-toxic
11.5 µM	22 µM	42.4 µM	19.3 µM	Dose-dependent effect	Dose-dependent effect	O=C(NCCCCCCS)c1cc(-c2cccnc2)n[nH]1	18.1 µM	9.4 µM	14.6 µM	> 50 µM	–	IC50 [14]: 0.015 µM; IC50 [15]: 0.052 µM; IC50 [16]: 0.026 µM; IC50 [17]: 0.221 µM; IC50 [18]: 0.029 µM; IC50 [19]: > 10 µM; IC50 [20]: > 10 µM; IC50 [21]: > 10 µM

SMILES	GI50 [1]	GI50 ([3]; Homo sapiens, HT-29, 96 h)	GI50 [4]	GI50 [5]	inhibition [9]	inhibition [10]	GI50 [2]	GI50 [6]	GI50 [7]	GI50 at 96 h [8]	inhibition in vivo at 40 mg/kg [11]	also measured
O=C(NCCCCCCSSCCCCCCNC(=O)c1cc(-c2ccncc2)n[nH]1)c1cc(-c2ccncc2)n[nH]1	7.15 µM	6.92 µM	27.3 µM	6.07 µM	Dose-dependent effect	Dose-dependent effect	8.93 µM	4.74 µM	25.3 µM	14.8 µM	27%	inhibition in vivo at 80 mg/kg [22]: 48%; Activity [23]: Non-toxic; Activity [24]: Non-toxic; inhibition [25]: Dose-dependent effect
